Numbers after ± are expanded uncertainties.
How the values were obtained:
[1] = refractive index (Na D-line) (dimensionless); details: 101.33 kPa, Liquid, Standard Abbe refractometry
[2] = Liquid; for speed of sound: Single path-length method; for mass density: Vibrating tube method
[3] = wn = mass fraction of the nth substance listed; details: 101 kPa, Liquid, w1 = 1; for speed of sound: Single path-length method; for mass density: Vibrating tube method

CCCCn1cc[n+](C)c1.F[B-](F)(F)F [1-butyl-3-methylimidazolium tetrafluoroborate]
refractive index ([1]; 293.15 K): 1.423 ± 0.001
viscosity ([2]; 293.15 K, 101 kPa): 129.34 ± 13 mPa·s
speed of sound ([2]; 293.15 K, 101 kPa): 1576.7 ± 2.1 m/s
mass density ([2]; 293.15 K, 101 kPa): 1206 ± 1.3 kg/m3
viscosity ([2]; 298.15 K, 101 kPa): 98.95 ± 6.9 mPa·s
speed of sound ([2]; 298.15 K, 101 kPa): 1564.7 ± 2.1 m/s
mass density ([2]; 298.15 K, 101 kPa): 1202.4 ± 1.3 kg/m3
viscosity ([2]; 303.15 K, 101 kPa): 77 ± 3.5 mPa·s
speed of sound ([2]; 303.15 K, 101 kPa): 1552.8 ± 2.1 m/s
mass density ([2]; 303.15 K, 101 kPa): 1198.8 ± 1.3 kg/m3
viscosity ([2]; 308.15 K, 101 kPa): 60.9 ± 1.4 mPa·s
speed of sound ([2]; 308.15 K, 101 kPa): 1541.2 ± 2.1 m/s
mass density ([2]; 308.15 K, 101 kPa): 1195.2 ± 1.3 kg/m3
viscosity ([2]; 313.15 K, 101 kPa): 49.2 ± 1.3 mPa·s
speed of sound ([2]; 313.15 K, 101 kPa): 1529.6 ± 2.1 m/s
mass density ([2]; 313.15 K, 101 kPa): 1191.7 ± 1.3 kg/m3
viscosity ([2]; 318.15 K, 101 kPa): 40.27 ± 1 mPa·s
speed of sound ([2]; 318.15 K, 101 kPa): 1518.2 ± 2.1 m/s
mass density ([2]; 318.15 K, 101 kPa): 1188.1 ± 1.2 kg/m3
mass density ([2]; 318.15 K, 101.33 kPa): 1188.2 ± 1.2 kg/m3
viscosity ([2]; 323.15 K, 101 kPa): 33.44 ± 0.85 mPa·s
speed of sound ([2]; 323.15 K, 101 kPa): 1506.9 ± 2.1 m/s
mass density ([2]; 323.15 K, 101 kPa): 1184.6 ± 1.2 kg/m3
viscosity ([2]; 328.15 K, 101 kPa): 28.12 ± 0.72 mPa·s
speed of sound ([2]; 328.15 K, 101 kPa): 1495.7 ± 2.1 m/s
mass density ([2]; 328.15 K, 101 kPa): 1181.1 ± 1.2 kg/m3
viscosity ([2]; 333.15 K, 101 kPa): 23.94 ± 0.61 mPa·s
speed of sound ([2]; 333.15 K, 101 kPa): 1484.5 ± 2.1 m/s
mass density ([2]; 333.15 K, 101 kPa): 1177.6 ± 1.2 kg/m3
viscosity ([2]; 338.15 K, 101 kPa): 20.62 ± 0.53 mPa·s
speed of sound ([2]; 338.15 K, 101 kPa): 1473.2 ± 2.1 m/s
mass density ([2]; 338.15 K, 101 kPa): 1174.2 ± 1.2 kg/m3
viscosity ([2]; 343.15 K, 101 kPa): 17.92 ± 0.46 mPa·s
speed of sound ([2]; 343.15 K, 101 kPa): 1461.7 ± 2.1 m/s
mass density ([2]; 343.15 K, 101 kPa): 1170.7 ± 1.2 kg/m3

CCCCn1cc[n+](C)c1.F[B-](F)(F)F [1-butyl-3-methylimidazolium tetrafluoroborate] + CN1CCCC1=O
speed of sound ([3]; 293.15 K): 1576.7 ± 2.1 m/s
mass density ([3]; 293.15 K): 1206 ± 1.3 kg/m3
viscosity ([3]; 293.15 K): 129.34 ± 13 mPa·s
speed of sound ([3]; 298.15 K): 1564.7 ± 2.1 m/s
mass density ([3]; 298.15 K): 1202.4 ± 1.3 kg/m3
viscosity ([3]; 298.15 K): 98.95 ± 6.9 mPa·s
speed of sound ([3]; 303.15 K): 1552.8 ± 2.1 m/s
mass density ([3]; 303.15 K): 1198.8 ± 1.3 kg/m3
viscosity ([3]; 303.15 K): 77 ± 3.5 mPa·s
speed of sound ([3]; 308.15 K): 1541.2 ± 2.1 m/s
mass density ([3]; 308.15 K): 1195.2 ± 1.3 kg/m3
viscosity ([3]; 308.15 K): 60.9 ± 1.4 mPa·s
speed of sound ([3]; 313.15 K): 1529.6 ± 2.1 m/s
mass density ([3]; 313.15 K): 1191.7 ± 1.3 kg/m3
viscosity ([3]; 313.15 K): 49.2 ± 1.3 mPa·s
speed of sound ([3]; 318.15 K): 1518.2 ± 2.1 m/s
mass density ([3]; 318.15 K): 1188.1 ± 1.2 kg/m3
viscosity ([3]; 318.15 K): 40.27 ± 1 mPa·s
speed of sound ([3]; 323.15 K): 1506.9 ± 2.1 m/s
mass density ([3]; 323.15 K): 1184.6 ± 1.2 kg/m3
viscosity ([3]; 323.15 K): 33.44 ± 0.85 mPa·s
speed of sound ([3]; 328.15 K): 1495.7 ± 2.1 m/s
mass density ([3]; 328.15 K): 1181.1 ± 1.2 kg/m3
viscosity ([3]; 328.15 K): 28.12 ± 0.72 mPa·s
speed of sound ([3]; 333.15 K): 1484.5 ± 2.1 m/s
mass density ([3]; 333.15 K): 1177.6 ± 1.2 kg/m3
viscosity ([3]; 333.15 K): 23.94 ± 0.61 mPa·s
speed of sound ([3]; 338.15 K): 1473.2 ± 2.1 m/s
mass density ([3]; 338.15 K): 1174.2 ± 1.2 kg/m3
viscosity ([3]; 338.15 K): 20.62 ± 0.53 mPa·s
speed of sound ([3]; 343.15 K): 1461.7 ± 2.1 m/s
mass density ([3]; 343.15 K): 1170.7 ± 1.2 kg/m3
viscosity ([3]; 343.15 K): 17.92 ± 0.46 mPa·s

CN1CCCC1=O [N-methylpyrrolidone]
refractive index ([1]; 298.15 K): 1.469 ± 0.001
viscosity ([2]; 293.15 K, 101 kPa): 1.786 ± 0.049 mPa·s
speed of sound ([2]; 293.15 K, 101 kPa): 1565.7 ± 0.9 m/s
mass density ([2]; 293.15 K, 101 kPa): 1034.1 ± 0.2 kg/m3
viscosity ([2]; 298.15 K, 101 kPa): 1.693 ± 0.047 mPa·s
speed of sound ([2]; 298.15 K, 101 kPa): 1546.1 ± 0.9 m/s
mass density ([2]; 298.15 K, 101 kPa): 1029.7 ± 0.2 kg/m3
viscosity ([2]; 303.15 K, 101 kPa): 1.564 ± 0.044 mPa·s
speed of sound ([2]; 303.15 K, 101 kPa): 1526.7 ± 0.9 m/s
mass density ([2]; 303.15 K, 101 kPa): 1025.2 ± 0.2 kg/m3
viscosity ([2]; 308.15 K, 101 kPa): 1.448 ± 0.042 mPa·s
speed of sound ([2]; 308.15 K, 101 kPa): 1507.5 ± 0.9 m/s
mass density ([2]; 308.15 K, 101 kPa): 1020.8 ± 0.2 kg/m3
viscosity ([2]; 313.15 K, 101 kPa): 1.346 ± 0.039 mPa·s
speed of sound ([2]; 313.15 K, 101 kPa): 1488.3 ± 0.9 m/s
mass density ([2]; 313.15 K, 101 kPa): 1016.3 ± 0.2 kg/m3
viscosity ([2]; 318.15 K, 101 kPa): 1.258 ± 0.037 mPa·s
speed of sound ([2]; 318.15 K, 101 kPa): 1469.2 ± 0.9 m/s
mass density ([2]; 318.15 K, 101 kPa): 1011.9 ± 0.2 kg/m3
viscosity ([2]; 323.15 K, 101 kPa): 1.176 ± 0.035 mPa·s
speed of sound ([2]; 323.15 K, 101 kPa): 1450.4 ± 0.9 m/s
mass density ([2]; 323.15 K, 101 kPa): 1007.4 ± 0.2 kg/m3
viscosity ([2]; 328.15 K, 101 kPa): 1.103 ± 0.033 mPa·s
speed of sound ([2]; 328.15 K, 101 kPa): 1431.4 ± 0.9 m/s
mass density ([2]; 328.15 K, 101 kPa): 1002.9 ± 0.2 kg/m3
viscosity ([2]; 333.15 K, 101 kPa): 1.037 ± 0.032 mPa·s
speed of sound ([2]; 333.15 K, 101 kPa): 1412.8 ± 0.9 m/s
mass density ([2]; 333.15 K, 101 kPa): 998.4 ± 0.2 kg/m3
viscosity ([2]; 338.15 K, 101 kPa): 0.9769 ± 0.03 mPa·s
speed of sound ([2]; 338.15 K, 101 kPa): 1394.4 ± 0.9 m/s
mass density ([2]; 338.15 K, 101 kPa): 993.9 ± 0.2 kg/m3
viscosity ([2]; 343.15 K, 101 kPa): 0.923 ± 0.029 mPa·s
speed of sound ([2]; 343.15 K, 101 kPa): 1376 ± 0.9 m/s
mass density ([2]; 343.15 K, 101 kPa): 989.4 ± 0.2 kg/m3

CCCCCC [hexane]
refractive index ([1]; 298.15 K): 1.372 ± 0.001
mass density ([2]; 313.15 K, 101.33 kPa): 641.2 ± 0.3 kg/m3
